Read-outs that look alike come from different tables or passages of the source.
Experiments:
mTORC1 = target: T1, mTORC1 (Homo sapiens, UniProt P42345+P62942); assay: Inhibition assay for mTORC1: phosphorylation of pS6K at Thr389, AlphaLISA SureFire in PC3 cells; format: cell-based
T1 construct: endogenous in cells; host or cells: PC3 cells (human prostate adenocarcinoma)
Method: (§1) The IC50s of the inhibition of mTORC1 and mTORC2 were determined in vitro by determining the phosphorylation of pS6K at position Thr389 (mTORC1 inhibition) and pAkt at Ser473 (mTORC2 inhibition). In vitro studies were performed with AiphaLISA® technology using PC3 cells (Prostate Adenocarcinoma; Human (Homo sapiens)). The cells were seeded in 96 well plates and were treated for 24 hours with the different compounds. […] All analysis were performed using GraphPad Prism 7.0 (GraphPad Software, San Diego, USA).
Tables 5-7 include PIC50 values for mTORC1 of selected compounds; with compounds having an PIC50 for mTORC1 of >9.5 as A, 8.5 to 9.5 as B, and less than 8.5 as C.

mTORC2 = target: T2, mTORC2 (Homo sapiens, UniProt P42345+P62942); assay: Inhibition assay for mTORC2: phosphorylation of pAkt at Ser473, AlphaLISA SureFire in PC3 cells; format: cell-based; conditions: 24 hours treatment, analogs substituted at C40 and C16 (C16 diastereomer mixtures not isolated)
T2 construct: endogenous in cells; host or cells: PC3 cells (human prostate adenocarcinoma)
Method: as §1, with “USA). […]” for “USA).”

[1] = PC3 cells, 24 hours treatment, pS6K Thr389, analogs substituted at C40 and C16 (C16 diastereomer mixtures not isolated), read-out: pIC50 mTORC1 (converted)
[2] = PC3 cells, read-out: pIC50 mTORC2 (converted)

Molecule | IC50 (mTORC1; [1]) | IC50 (mTORC2; [2]) | also measured
COCCCCOC1C[C@@H]2CC[C@@H](C)[C@@](O)(O2)C(=O)C(=O)N2CCCCC2C(=O)O[C@H]([C@H](C)C[C@@H]2CC[C@@H](OCCCO)[C@H](OC)C2)CC(=O)[C@H](C)/C=C(\C)[C@@H](O)[C@@H](OC)C(=O)[C@H](C)C[C@H](C)/C=C/C=C/C=C/1C (stereo partly drawn) [Compound 70, (1R,9S,12S,15R,16E,18R,19R,21R,23S,24E,26E,28E,32S,35R)-1,18-dihydroxy-12-[(1R)-2-[(1S,3R,4R)-4-(3-hydroxypropoxy)-3-methoxy-cyclohexyl]-1-methyl-ethyl]-19-methoxy-30-(4-methoxybutoxy)-15,17,21,23,29,35-hexamethyl-11,36-dioxa-4-azatricyclo[30.3.1.0^4,9]hexatriaconta-16,24,26,28-tetraene-2,3,10,14,20-pentone] | < 0.316 nM | 1000 to 10000 nM | 
COCCOCCOC1C[C@@H]2CC[C@@H](C)[C@@](O)(O2)C(=O)C(=O)N2CCCC[C@H]2C(=O)O[C@H]([C@H](C)C[C@@H]2CC[C@@H](OCCCO)[C@H](OC)C2)CC(=O)[C@H](C)/C=C(\C)[C@@H](O)[C@@H](OC)C(=O)[C@H](C)C[C@H](C)/C=C/C=C/C=C/1C (mixture of isomers) [Compound 17] |  |  | IC50 (mTORC1): < 0.316 nM; IC50 (mTORC2; pIC50 mTORC2, PC3 cells): > 10000 nM
CO[C@@H]1C[C@H](C[C@@H](C)[C@@H]2CC(=O)[C@H](C)/C=C(\C)[C@@H](O)[C@@H](OC)C(=O)[C@H](C)C[C@H](C)/C=C/C=C/C=C(\C)C(OCCc3ccccc3)C[C@@H]3CC[C@@H](C)[C@@](O)(O3)C(=O)C(=O)N3CCCCC3C(=O)O2)CC[C@H]1OC(=O)N(C)CCCN(C)C (stereo partly shown) [Compound 95] | < 0.316 nM | < 1000 nM | 
CO[C@@H]1C[C@H](C[C@@H](C)[C@@H]2CC(=O)[C@H](C)/C=C(\C)[C@@H](O)[C@@H](OC)C(=O)[C@H](C)C[C@H](C)/C=C/C=C/C=C(\C)C(OCCOCCO)C[C@@H]3CC[C@@H](C)[C@@](O)(O3)C(=O)C(=O)N3CCCCC3C(=O)O2)CC[C@H]1OCCO (stereo partly shown) [Compound 69] | 0.316 to 3.16 nM | > 10000 nM | 
COCCCO[C@@H]1CC[C@@H](C[C@@H](C)[C@@H]2CC(=O)[C@H](C)/C=C(\C)[C@@H](O)[C@@H](OC)C(=O)[C@H](C)C[C@H](C)/C=C/C=C/C=C(\C)C(OCCOC)C[C@@H]3CC[C@@H](C)[C@@](O)(O3)C(=O)C(=O)N3CCCCC3C(=O)O2)C[C@H]1OC (stereo partly shown) [Compound 14] | < 0.316 nM | > 10000 nM | 
CO[C@@H]1C[C@H](C[C@@H](C)[C@@H]2CC(=O)[C@H](C)/C=C(\C)[C@@H](O)[C@@H](OC)C(=O)[C@H](C)C[C@H](C)/C=C/C=C/C=C(\C)C(OC[C@@H](O)c3ccccc3)C[C@@H]3CC[C@@H](C)[C@@](O)(O3)C(=O)C(=O)N3CCCCC3C(=O)O2)CC[C@H]1OCCCN1CCOCC1 (stereo partly shown) [Compound 92] | < 0.316 nM | 1000 to 10000 nM | 
CO[C@@H]1C[C@H](C[C@@H](C)[C@@H]2CC(=O)[C@H](C)/C=C(\C)[C@@H](O)[C@@H](OC)C(=O)[C@H](C)C[C@H](C)/C=C/C=C/C=C(\C)C(OCCCO)C[C@@H]3CC[C@@H](C)[C@@](O)(O3)C(=O)C(=O)N3CCCCC3C(=O)O2)CC[C@H]1OCCO (stereo partly shown) [Compound 15] | < 0.316 nM | > 10000 nM | 
CO[C@@H]1C[C@H](C[C@@H](C)[C@@H]2CC(=O)[C@H](C)/C=C(\C)[C@@H](O)[C@@H](OC)C(=O)[C@H](C)C[C@H](C)/C=C/C=C/C=C(\C)C(OC(C)C)C[C@@H]3CC[C@@H](C)[C@@](O)(O3)C(=O)C(=O)N3CCCCC3C(=O)O2)CC[C@H]1OCCCc1ccccc1 (stereo partly shown) [Compound 96] | > 3.16 nM | > 10000 nM | 
CO[C@@H]1C[C@H](C[C@@H](C)[C@@H]2CC(=O)[C@H](C)/C=C(\C)[C@@H](O)[C@@H](OC)C(=O)[C@H](C)C[C@H](C)/C=C/C=C/C=C(\C)C(OCC3COC3)C[C@@H]3CC[C@@H](C)[C@@](O)(O3)C(=O)C(=O)N3CCCCC3C(=O)O2)CC[C@H]1OCCO (stereo partly shown) [Compound 75] | 0.316 to 3.16 nM | 1000 to 10000 nM | 
COCCOC1C[C@@H]2CC[C@@H](C)[C@@](O)(O2)C(=O)C(=O)N2CCCCC2C(=O)O[C@H]([C@H](C)C[C@@H]2CC[C@@H](OCCCN3CCOCC3)[C@H](OC)C2)CC(=O)[C@H](C)/C=C(\C)[C@@H](O)[C@@H](OC)C(=O)[C@H](C)C[C@H](C)/C=C/C=C/C=C/1C (stereo partly shown) [Compound 48] | < 0.316 nM | 1000 to 10000 nM | 
CO[C@@H]1C[C@H](C[C@@H](C)[C@@H]2CC(=O)[C@H](C)/C=C(\C)[C@@H](O)[C@@H](OC)C(=O)[C@H](C)C[C@H](C)/C=C/C=C/C=C(\C)C(OCc3ccccc3)C[C@@H]3CC[C@@H](C)[C@@](O)(O3)C(=O)C(=O)N3CCCCC3C(=O)O2)CC[C@H]1OCCCc1ccccc1 (stereo partly shown) [Compound 116] | 0.316 to 3.16 nM | < 1000 nM | 
(1R,9S,12SR,15R,16E,18R,19R,21R,23S,24E,26E,28E,32SR,35R)-1,18-dihydroxy-30-(3-hydroxypropoxy)-19-methoxy-12-[(1R)-2-[(1S,3R,4R)-3-methoxy-4-(3-phenylpropoxy)cyclohexyl]-1-methyl-ethyl]-15,17,21,23,29,35-hexamethyl-11,36-dioxa-4-azatricyclo[30.3.1.0^4,9]hexatriaconta-16,24,26,28-tetraene-2,3,10,14,20-pentone [Compound 67] |  |  | pIC50 mTORC1 (mTORC1; PC3 cells, 24 hours treatment, pS6K Thr389, analogs substituted at C40 and C16 (C16 diastereomer mixtures not isolated)): B (8.5 to 9.5 as B); pIC50 mTORC2 (mTORC2; PC3 cells): A (PIC50 for mTORC2 of <5 as A)
CO[C@@H]1C[C@H](C[C@@H](C)[C@@H]2CC(=O)[C@H](C)/C=C(\C)[C@@H](O)[C@@H](OC)C(=O)[C@H](C)C[C@H](C)/C=C/C=C/C=C(\C)C(OCC(C)(C)O)C[C@@H]3CC[C@@H](C)[C@@](O)(O3)C(=O)C(=O)N3CCCCC3C(=O)O2)CC[C@H]1OCCCO (stereo partly shown) [Compound 98] | 0.316 to 3.16 nM | 1000 to 10000 nM | 
COCCOC1C[C@@H]2CC[C@@H](C)[C@@](O)(O2)C(=O)C(=O)N2CCCCC2C(=O)O[C@H]([C@H](C)C[C@@H]2CC[C@@H](OC(=O)N(C)CCN3CCOCC3)[C@H](OC)C2)CC(=O)[C@H](C)/C=C(\C)[C@@H](O)[C@@H](OC)C(=O)[C@H](C)C[C@H](C)/C=C/C=C/C=C/1C (stereo partly shown) [Compound 25] | < 0.316 nM | 1000 to 10000 nM | 

Further lines, with some results ahead:

IC50 (mTORC1; [1]) | IC50 (mTORC2; [2]) | Molecule | also measured
< 0.316 nM | < 1000 nM | CO[C@@H]1C[C@H](C[C@@H](C)[C@@H]2CC(=O)[C@H](C)/C=C(\C)[C@@H](O)[C@@H](OC)C(=O)[C@H](C)C[C@H](C)/C=C/C=C/C=C(\C)C(OCCc3ccccc3)C[C@@H]3CC[C@@H](C)[C@@](O)(O3)C(=O)C(=O)N3CCCCC3C(=O)O2)CC[C@H]1OC(=O)NCCn1cnnn1 (stereo partly shown) [Compound 114] | 
0.316 to 3.16 nM | > 10000 nM | CO[C@@H]1C[C@H](C[C@@H](C)[C@@H]2CC(=O)[C@H](C)/C=C(\C)[C@@H](O)[C@@H](OC)C(=O)[C@H](C)C[C@H](C)/C=C/C=C/C=C(\C)C(OCCOCCO)C[C@@H]3CC[C@@H](C)[C@@](O)(O3)C(=O)C(=O)N3CCCCC3C(=O)O2)CC[C@H]1OCCCO (stereo partly shown) [Compound 53] | 
< 0.316 nM | > 10000 nM | COCCOCCOC1C[C@@H]2CC[C@@H](C)[C@@](O)(O2)C(=O)C(=O)N2CCCCC2C(=O)O[C@H]([C@H](C)C[C@@H]2CC[C@@H](OCCO)[C@H](OC)C2)CC(=O)[C@H](C)/C=C(\C)[C@@H](O)[C@@H](OC)C(=O)[C@H](C)C[C@H](C)/C=C/C=C/C=C/1C (stereo partly shown) [Compound 20] | 
< 0.316 nM | 1000 to 10000 nM | COCCOC1C[C@@H]2CC[C@@H](C)[C@@](O)(O2)C(=O)C(=O)N2CCCCC2C(=O)O[C@H]([C@H](C)C[C@@H]2CC[C@@H](OCCN3CCN(C)CC3)[C@H](OC)C2)CC(=O)[C@H](C)/C=C(\C)[C@@H](O)[C@@H](OC)C(=O)[C@H](C)C[C@H](C)/C=C/C=C/C=C/1C (stereo partly shown) [Compound 47] | 
< 0.316 nM | 1000 to 10000 nM | CO[C@@H]1C[C@H](C[C@@H](C)[C@@H]2CC(=O)[C@H](C)/C=C(\C)[C@@H](O)[C@@H](OC)C(=O)[C@H](C)C[C@H](C)/C=C/C=C/C=C(\C)C(OCCO)C[C@@H]3CC[C@@H](C)[C@@](O)(O3)C(=O)C(=O)N3CCCCC3C(=O)O2)CC[C@H]1OCCCCN1CCOCC1 (stereo partly shown) [Compound 50] | 
< 0.316 nM | < 1000 nM | CO[C@@H]1C[C@H](C[C@@H](C)[C@@H]2CC(=O)[C@H](C)/C=C(\C)[C@@H](O)[C@@H](OC)C(=O)[C@H](C)C[C@H](C)/C=C/C=C/C=C(\C)C(OCCc3ccccc3)C[C@@H]3CC[C@@H](C)[C@@](O)(O3)C(=O)C(=O)N3CCCCC3C(=O)O2)CC[C@H]1OC(=O)N(CCO)CCO (stereo partly drawn) [Compound 112, [(1R,2R,4S)-4-[(2R)-2-[(1R,9S,12S,15R,16E,18R,19R,21R,23S,24E,26E,28E,32S,35R)-1,18-dihydroxy-19-methoxy-15,17,21,23,29,35-hexamethyl-2,3,10,14,20-pentaoxo-30-(2-phenylethoxy)-11,36-dioxa-4-azatricyclo[30.3.1.0^4,9]hexatriaconta-16,24,26,28-tetraen-12-yl]propyl]-2-methoxy-cyclohexyl] N,N-bis(2-hydroxyethyl)carbamate] | 

From patent publication US12565505B2, “mTORC modulators and uses thereof” (Aeovian Pharmaceuticals, Inc., priority 2019, dated 2026)
